Data set [1] has as its system volar forearm skin of human volunteers. The note with it: in vivo. The text has this: In both Examples 4 and 5, elongate microparticles (EMPs) were fabricated from silicon using deep reactive ion etching. Lithography was used to pattern a silicon wafer that was then coated with SU-8 photoresist. After a post exposure bake, the resist was developed in […]. The SU8 structures remaining served as a physical mask during etching, which were etched using a Bosch process. The etched EMPs were washed three times in acetone, followed by three washes in 100% ethanol and lastly three times in distilled water. Prior to application the EMPs were removed from the silicon wafer.
The ability of silicon EMPs of various diameters to penetrate the skin was determined by application of a mixture of sodium fluorescein and EMPs to the volar forearm of four human, healthy volunteers using a plastic applicator as described in provisional patent application AU2012905650. 50 μL of the sodium fluorescein solution having a concentration of 1 mg/mL was mixed with 5 mg of silicon EMPs and applied to the forearm using a gentle massage motion with the applicator. […]
Three different populations of EMPs were used to assess the influence of EMP diameter on penetration and delivery. […] Grouped data was analysed using a one-way ANOVA with a Tukey's multiple comparison test.

The next data set concerns vaginal tracts of mice. Conditions: mouse, in vivo.
For a further data set, the system named is in vivo pig skin. The procedure: FIG. 13 represents comparison of delivery of sodium fluorescein to in vivo pig skin. In vivo experiments were conducted on 6 female Landrace weaner pigs weighing approx. 10-15 kg (Centre for Advanced Animal Science, The University of Queensland Gatton Campus, Australia). The pigs were anaesthetized intramuscularly by co-administration of Butorphanol (0.15 mg/kg) and Zoletil (5 mg/kg) followed by intubation with isoflurane to maintain unconsciousness. Following anesthesia the flanks of the pigs were washed with soapy water and patted dry. The flank was then shaved gently using an electric razor. The flank was marked, to separate the application areas (2 cm diameter circles, 2 cm apart). Payload administration and amounts were done using the same parameters as for ex vivo. After all the groups/samples were applied and swabbed, the pig was turned over and the procedure repeated to the other flank (resulting in 12 samples per group). Finally, the pig was culled and the center of the application areas was excised using a 6 mm circular punch biopsy. Each sample was placed on dry-ice followed by storage at −20° C. prior to analysis.

The subject of a further data set is ex vivo pig skin. Format: in vitro ADME. The procedure:
FIG. 12 represents comparison of delivery of sodium fluorescein to ex vivo pig skin. Pig skin was sourced and prepared for drug treatment as described for FIG. 10. For EMP delivery, 50 μL of the payload solution (1 mg/mL sodium fluorescein) was gently mixed with or without 5 mg of either the ‘short’ or ‘long’ EMP preparations. The samples were then scraped onto the surface of the skin. Administration was achieved by massaging the solution for 30 s using small circular motions within a 3 cm 2 circular area. To maintain consistency between administrations, a small hand-held applicator was designed resulting in an application force of 0.25 N (as described in AU2012905650). After administration, the payload was left on the skin for 5 min followed by removal of excess solution with cotton swabs. The centre of the application area was excised using a 6 mm circular punch biopsy. A total of 6 samples were done per group. Each sample was stored at −20° C. prior to analysis. […] FIG. 12d represents fluorescence confocal microscopy mosaic images of the pig skin with topical application of sodium fluorescein only (no EMP). […] The images in FIGS. 12d to 12l have been pseudo-colored in greyscale, where black corresponds to 0 (min) fluorescence intensity and white corresponds to 255 (max) fluorescence intensity, as shown on the scale superimposed on FIG. 12l.

For data set [2], the system named is freshly excised, non-diseased human skin. The data set is classed as in vitro ADME. How it is done:
The results are illustrated in FIGS. 5 to 8.
FIGS. 7 and 8 illustrate the effect of application forces on the penetration of sodium fluorescein in conjunction with ‘long’ EMPs. Measurements were made 15 minutes after application to freshly excised, non-diseased human skin (from female, Caucasian, abdominal plastic surgery patients). […] Application forces of 0.2N, 5N and 10N were all applied using a gloved finger on a scale. The excised skin is place on the scale and the finger is applied to the EMPs/skin until a weight is achieved on the scale corresponding to either 0.2, 5 or 10 N.) All forces are effective in improving penetration of sodium fluorescein into the stratum spinosum. There was an apparent optimum application force of 5N under the conditions of the tests.

For the next data set, the system named is skin of human volunteers. The note with it: in vivo.

Experimental for excised human skin: Both ex vivo and in vivo tissue samples were analysed en face using fluorescence (excited at 488 nm) and reflectance (excited at 750 nm) confocal microscopy (Vivascope® 1500 Multilaser, Lucid Inc., USA). The microscope also consisted of a dermatoscope, which was used to image and position the skin prior to microscopy. The samples were optically sectioned at 1.5 μm intervals from the surface of the skin down to a depth of 150 μm. Each optical slice consisted of a focal area of 500×500 μm^2.
In relation to the sodium fluorescein signal, an area 300×300 μm^2 in size was selected in the center of the image and the raw integrated density was measured throughout the entire stack. The data were then divided by the analysed area (9000 μm^2) resulting in the sodium fluorescein integrated density per μm^2.
A mixture was formed of by taking 50 μl of sodium fluorescein dye (1 mg/mL) and mixed with or without 5 mg of silica EMP This mixture was applied to previously frozen or freshly excised human skin under varying conditions of EMP length and/or application force.
The skin was stored at −20° C. and then brought to room temperature prior to use. […] It is measured by dividing the sodium fluorescein pixel intensity achieved with EMPs by the sodium fluorescein pixel intensity achieved without EMPs. […]
Experimental for excised pig skin: Excised pig ears sourced from a local abattoir were washed with soap and water followed by rinsing. The ears were stored at −20° C. until required. The ears were thawed and then gently shaved to remove excessive hair, then rinsed and pat dried. The ventral side of the ear was then separated from the cartilage using a scalpel. The excised skin was pinned down on a cork-board maintaining slight tension across the surface. For EMP delivery, 50 μL of the payload solution (1 mg/mL sodium fluorescein, 0.01 mCi/mL vitamin A or 0.01 mCi/mL, vitamin B3 respectively) was gently mixed with 5 mg of either the ‘short’ or ‘long’ EMP preparations. The samples were then scraped onto the surface of the skin.
Administration was achieved by massaging the payload mixture for 30 s using small circular motions within a 3 cm 2 circular area. […] After administration, the payload was left on the skin for 5 min followed by removal of excess solution with cotton swabs. The center of the application area was excised using a 6 mm circular punch biopsy. A total of 6 samples were done per group. Each sample was stored at −20° C. prior to analysis.
The integrated density of sodium fluorescein is directly related to the concentration of the drug within the skin. […] In this case, skin was pinned out taut on a cork board, epidermal side uppermost. Tritiated compound was applied to the skin surface and left for 15 minutes. […]
Experimental for vaginal tracts of mice: In these in vivo mouse experiments, a 10 μl quantity of sodium fluorescein (1 mg/ml) was pipetted into the vaginal tracts of mice. In one group of mice, dye application occurred only after prior application of a small quantity of EMP (5 mg). The dye solution was gently massaged with a rod-like applicator. Vaginal tracts were removed at sacrifice and mounted for cryosectioning.

In the case of `O=C([O-])c1ccccc1-c1c2ccc(=O)cc-2oc2cc([O-])ccc12.[Na+].[Na+]` [sodium fluorescein], the “enhancement of penetration of sodium fluorescein” value in the data set on excised pig skin is on record as “superior ability”. The “amount of sodium fluorescein detected” value in data set [1] was “no significant difference”. In addition, in the data set on vaginal tracts of mice, the “penetration depth within the epithelium” value is recorded as “about 60 μm” and the “penetration depth within the epithelium relative to delivery in the absence of EMP” value was “more than 4 times”. Further, in the data set on in vivo pig skin, the “fluorescence detected below the surface of the skin” value is “Minimal fluorescence” and the sodium fluorescein signal entry is recorded as “greater signal”. Besides, the “fluorescence detected below the surface of the skin” value in the data set with ex vivo pig skin is listed as “minimal fluorescence”. The “increase in delivery of sodium fluorescein dye across the stratum corneum” value in data set [2] is on record as “several-fold increase”. In the data set on excised human skin, the “amount of sodium fluorescein penetrated (into the stratum spinosum)” value is recorded as “greatest amount” and the “transdermal delivery of sodium fluorescein dye” value is “greatly enhance”. Besides, the “penetration of topically applied sodium fluorescein” value in the data set with skin of human volunteers is “more lasting and deeper penetration”.

(Values after patent publication US20240108570A1, “METHOD AND COMPOSITION FOR DELIVERING A COMPOUND THROUGH A BIOLOGICAL BARRIER” (priority 2012, published 2024).)
